target: T1, human recombinant LPA2 (Homo sapiens, UniProt Q9HBW0); assay: FLIPR calcium mobilization assay, LPA2 antagonism in CHO-hLPA2 cells; type: cell-based; details: human recombinant LPA2 in CHO cells, LPA EC80 stimulation, 30 min pre-incubation; read-out: LPA2 IC50
T1 construct: expressed in transfected cells; host or cells: CHO (CHO-hLPA2 cell line)
Experimental: The effectiveness of compounds of the present invention as LPA2 antagonist can be determined at the human recombinant LPA2 expressed in CHO cells, using a FLIPR assay in 384 well format.
CHO-hLPA2 cell lines are cultured in a humidified incubator at 5% CO2 in DMEM/F-12 (1:1) MIXTURE with 2 mM Glutamax, supplemented with 10% of Foetal Bovine Serum, 1 mM Sodium Pyruvate, 11 mM Hepes and 1× Penicillin/Streptomycin. CHO hLPA2 cells are seeded into black walled clear-bottom 384-well plates (#781091, Greiner Bio-One GmbH) at a density of 7,500 cells per well in 50 μl culture media and grown overnight in a 37° C. humidified CO2-incubator. Serial dilutions (1:3 or 1:4, 11 points CRC) of compounds are performed in 100% DMSO at 200× the final concentration. The compounds are diluted 1:50 prior to the experiment with Assay Buffer (20 mM HEPES, 145 mM NaCl, 5 mM KCl, 5.5 mM glucose, 1 mM MgCl2 and 2 mM CaCl2, pH 7.4 containing 0.01% Pluronic F-127) to obtain a solution corresponding to […] the final concentration in the assay (4×, 2% DMSO). The final concentration of DMSO in the assay will be 0.5% in each well. Medium is removed by aspiration and cells are then incubated with 30 μl of a loading solution containing 5 μM of the cytoplasmic Ca2+ indicator Cal-520 AM in Assay Buffer containing 2.5 mM probenecid for 30 min at 37° C. incubator (cell loading). The loaded cell plates are transferred into the FLIPR instrument and calcium responses are monitored during the on-line addition protocols. For testing of compounds, after the cell loading, 10 μl/well of 4× antagonists' solution was added onto the cells. After 30 min pre-incubation (at 37° C.), 10 μl/well of 5× concentrated LPA EC80 was added and Ca2+ mobilization responses was followed during the on-line addition protocol. Intracellular peak fluorescence values subtracted by baseline fluorescence are exported and analysed to determine IC50 values, respectively. The calcium response is expressed as percentage of the maximal inhibition of the EC80 agonist response.
The raw data (peak height expressed as relative fluorescence units) are normalized and transformed into “percent of inhibition”. Curve fitting and pIC50 (−Log IC50) estimations are carried out using a four-parameter logistic model using XLfit Software.

T1 sequence (Q9HBW0 whole entry): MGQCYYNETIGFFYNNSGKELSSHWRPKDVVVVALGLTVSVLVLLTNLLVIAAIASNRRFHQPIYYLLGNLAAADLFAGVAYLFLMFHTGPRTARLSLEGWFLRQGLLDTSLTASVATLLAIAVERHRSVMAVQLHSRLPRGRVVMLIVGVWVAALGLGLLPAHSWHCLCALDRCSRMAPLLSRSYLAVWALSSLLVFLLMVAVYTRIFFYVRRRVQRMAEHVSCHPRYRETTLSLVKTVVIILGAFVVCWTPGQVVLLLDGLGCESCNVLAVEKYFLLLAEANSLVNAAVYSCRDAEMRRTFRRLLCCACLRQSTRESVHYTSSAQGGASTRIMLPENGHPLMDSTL

Row | IC50 [nM] | Compound
1 | < 1000 | COC(=O)Nc1nc(C)c(S(=O)(=O)N2CCN(C[C@H](C)Nc3nc(C)nc4c(C)csc34)CC2)s1 [Example 37, Methyl N-[5-({4-[(2S)-2-({2,7-dimethylthieno[3,2-d]pyrimidin-4-yl}amino)propyl]piperazin-1-yl}sulfonyl)-4-methyl-1,3-thiazol-2-yl]carbamate]
2 | 10 to 100 | COC(=O)Nc1nc(C)c(S(=O)(=O)N2CCN(C[C@H](C)Nc3ncnc4c(C(F)(F)F)csc34)CC2)s1 [Example 1, methyl N-[4-methyl-5-({4-[(2S)-2-{[7-(trifluoromethyl)thieno[3,2-d]pyrimidin-4-yl]amino}propyl]piperazin-1-yl}sulfonyl)-1,3-thiazol-2-yl]carbamate]
3 | < 1000 | Cc1csc2c(N[C@@H](C)CN3CCN(S(=O)(=O)c4cnc(-c5ccccc5)nc4)CC3)ncnc12 [Example 15, 7-methyl-N-[(2S)-1-{4-[(2-phenylpyrimidin-5-yl)sulfonyl]piperazin-1-yl}propan-2-yl]thieno[3,2-d]pyrimidin-4-amine]
4 | < 1000 | COC(=O)Nc1nc(C)c(S(=O)(=O)N2CCN(C[C@H](C)Nc3ncnc4c(C)csc34)CC2)s1 [Example 20, methyl N-[4-methyl-5-({4-[(2S)-2-({7-methylthieno[3,2-d]pyrimidin-4-yl}amino)propyl]piperazin-1-yl}sulfonyl)-1,3-thiazol-2-yl]carbamate]
5 | < 1000 | Cc1csc2c(N[C@@H](C)CN3CCN(S(=O)(=O)c4ccc(-c5ccno5)s4)CC3)ncnc12 [Example 21, 7-methyl-N-[(2S)-1-(4-{[5-(1,2-oxazol-5-yl)thiophen-2-yl]sulfonyl}piperazin-1-yl)propan-2-yl]thieno[3,2-d]pyrimidin-4-amine]
6 | 10 to 100 | CC(=O)Nc1nc(C)c(S(=O)(=O)N2CCN(C[C@H](C)Nc3nc(C4CC4)nc4c(C)csc34)CC2)s1 [Example 35, N-[5-({4-[(2S)-2-({2-cyclopropyl-7-methylthieno[3,2-d]pyrimidin-4-yl}amino)propyl]piperazin-1-yl}sulfonyl)-4-methyl-1,3-thiazol-2-yl]acetamide]
7 | < 1000 | Cc1nc2ccc(S(=O)(=O)N3CCN(C[C@H](C)Nc4ncnc5c(C)csc45)CC3)cc2s1 [Example 23, 7-methyl-N-[(2S)-1-{4-[(2-methyl-1,3-benzothiazol-6-yl)sulfonyl]piperazin-1-yl}propan-2-yl]thieno[3,2-d]pyrimidin-4-amine]
8 | < 1000 | COC(=O)c1ccc(S(=O)(=O)N2CCN(C[C@H](C)Nc3ncnc4c(C)csc34)CC2)s1 [Example 4, Methyl 5-({4-[(2S)-2-({7-methylthieno[3,2-d]pyrimidin-4-yl}amino)propyl]piperazin-1-yl}sulfonyl)thiophene-2-carboxylate]
9 | < 1000 | Cc1nc(NC(=O)C2CN(C(=O)OC(C)(C)C)C2)sc1S(=O)(=O)N1CCN(C[C@H](C)Nc2ncnc3c(C)csc23)CC1 [Example 33, tert-butyl 3-{[4-methyl-5-({4-[(2S)-2-({7-methylthieno[3,2-d]pyrimidin-4-yl}amino)propyl]piperazin-1-yl}sulfonyl)-1,3-thiazol-2-yl]carbamoyl}azetidine-1-carboxylate]
10 | < 1000 | Cc1csc2c(N[C@@H](C)CN3CCN(S(=O)(=O)c4cc(Br)c(Cl)s4)CC3)ncnc12 [Example 10, N-[(2S)-1-{4-[(4-bromo-5-chlorothiophen-2-yl)sulfonyl]piperazin-1-yl}propan-2-yl]-7-methylthieno[3,2-d]pyrimidin-4-amine]
11 | < 1000 | Cc1csc2c(N[C@@H](C)CN3CCN(S(=O)(=O)c4ccc(Br)c(Cl)c4)CC3)ncnc12 [Example 11, N-[(2S)-1-[4-(4-bromo-3-chlorobenzenesulfonyl)piperazin-1-yl]propan-2-yl]-7-methylthieno[3,2-d]pyrimidin-4-amine]
12 | < 1000 | Cc1nc(-c2ccc(S(=O)(=O)N3CCN(C[C@H](C)Nc4ncnc5c(C)csc45)CC3)cc2)cs1 [Example 5, 7-methyl-N-[(2S)-1-{4-[4-(2-methyl-1,3-thiazol-4-yl)benzenesulfonyl]piperazin-1-yl}propan-2-yl]thieno[3,2-d]pyrimidin-4-amine]
13 | < 1000 | COC(=O)Nc1nc(C)c(S(=O)(=O)N2CCN(C[C@H](C)Nc3nc(Cl)nc4c(C(F)(F)F)csc34)CC2)s1 [Example 32, methyl N-[5-({4-[(2S)-2-{[2-chloro-7-(trifluoromethyl)thieno[3,2-d]pyrimidin-4-yl]amino}propyl]piperazin-1-yl}sulfonyl)-4-methyl-1,3-thiazol-2-yl]carbamate]
14 | < 1000 | Cc1nc(NC=O)sc1S(=O)(=O)N1CCN(C[C@H](C)Nc2ncnc3c(C)csc23)CC1 [Example 26, N-[4-methyl-5-({4-[(2S)-2-({7-methylthieno[3,2-d]pyrimidin-4-yl}amino)propyl]piperazin-1-yl}sulfonyl)-1,3-thiazol-2-yl]formamide]
15 | < 1000 | COC(=O)c1cc(Br)c(S(=O)(=O)N2CCN(C[C@H](C)Nc3ncnc4c(C)csc34)CC2)s1 [Example 13, methyl 4-bromo-5-({4-[(2S)-2-({7-methylthieno[3,2-d]pyrimidin-4-yl}amino)propyl]piperazin-1-yl}sulfonyl)thiophene-2-carboxylate]
16 | < 1000 | Cc1csc2c(N[C@@H](C)CN3CCN(S(=O)(=O)c4ccc(F)c(Cl)c4)CC3)ncnc12 [Example 9, N-[(2S)-1-[4-(3-chloro-4-fluorobenzenesulfonyl)piperazin-1-yl]propan-2-yl]-7-methylthieno[3,2-d]pyrimidin-4-amine]
17 | 10 to 100 | CCc1nc(N[C@@H](C)CN2CCN(S(=O)(=O)c3sc(NC(=O)OC)nc3C)CC2)c2scc(C)c2n1 [Example 38, methyl N-[5-({4-[(2S)-2-({2-ethyl-7-methylthieno[3,2-d]pyrimidin-4-yl}amino)propyl]piperazin-1-yl}sulfonyl)-4-methyl-1,3-thiazol-2-yl]carbamate]
18 | < 1000 | Cc1csc(-c2ccc(S(=O)(=O)N3CCN(C[C@H](C)Nc4ncnc5c(C)csc45)CC3)cc2)n1 [Example 17, 7-methyl-N-[(2S)-1-{4-[4-(4-methyl-1,3-thiazol-2-yl)benzenesulfonyl]piperazin-1-yl}propan-2-yl]thieno[3,2-d]pyrimidin-4-amine]
19 | < 1000 | CC(=O)Nc1ncc(S(=O)(=O)N2CCN(C[C@H](C)Nc3nc(C4CC4)nc4c(C)csc34)CC2)s1 [Example 22, N-[5-({4-[(2S)-2-({2-cyclopropyl-7-methylthieno[3,2-d]pyrimidin-4-yl}amino)propyl]piperazin-1-yl}sulfonyl)-1,3-thiazol-2-yl]acetamide]
20 | < 1000 | CC(=O)Nc1cc(F)c(S(=O)(=O)N2CCN(C[C@H](C)Nc3ncnc4c(C)csc34)CC2)cc1C [Example 6, N-[5-fluoro-2-methyl-4-({4-[(2S)-2-({7-methylthieno[3,2-d]pyrimidin-4-yl}amino)propyl]piperazin-1-yl}sulfonyl)phenyl]acetamide]

same assay, conditions: same in vitro assay as Table 2; read-out: IC50 on LPA2 receptor

Row | IC50 [nM] | Compound
21 | > 2000 | COC(=O)Nc1nc(C)c(S(=O)(=O)N2CCN(C[C@H](C)Nc3ncnc4c(-c5cccnc5)cn(C)c34)CC2)s1 [comparative Example A, Methyl (S)-(4-methyl-5-((4-(2-((5-methyl-7-(pyridin-3-yl)-5H-pyrrolo[3,2-d]pyrimidin-4-yl)amino)propyl)piperazin-1-yl)sulfonyl)thiazol-2-yl)carbamate, reference compound]

From US20230061417A1, “THIENOPYRIMIDINE DERIVATIVES AS LPA RECEPTOR 2 INHIBITORS” (CHIESI FARMACEUTICI S.P.A., priority 2019, published 2023)
